Experimental data published in patent US12599136B2, “Substituted isophthalic acid diamides and their use as herbicides” (Bayer Aktiengesellschaft, priority 2020, dated 2026).

What was measured:
Type in all cases: in vivo
Abutilon theophrasti [1] = assay: Pre-emergence herbicidal action against ABUTH; conditions: visual score after 3 weeks vs untreated controls
How it was run: (§1)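 Herbicidal effect was assessed 3 weeks after treatment by visual comparison with untreated controls, 100% denoting dead plants. Aqueous WP or EC preparations had been applied at 600 to 800 l/ha with 0.2% wetting agent to the soil covering freshly sown seeds.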

Amaranthus retroflexus [2] = assay: Pre-emergence herbicidal action against AMARE; conditions: visual score after 3 weeks vs untreated controls
How it was run: as §1

Avena fatua [3] = assay: Pre-emergence herbicidal action against AVEFA; conditions: 320 g/ha; visual score after 3 weeks vs untreated controls
How it was run: as §1

Cyperus esculentus = assay: Pre-emergence herbicidal action against CYPES; conditions: visual score after 3 weeks vs untreated controls
From the text: (§2) Seeds of monocotyledonous and dicotyledonous weed plants and crop plants are laid out in sandy loam soil in wood-fiber pots and covered with soil. The compounds of the invention, formulated in the form of wettable powders (WP) or as emulsion concentrates (EC), are then applied to the surface of the covering soil in the form of an aqueous suspension or emulsion at a water application rate equivalent to 600 to 800 l/ha, with addition of 0.2% wetting agent. After the treatment, the pots are placed in a greenhouse and kept under good growth conditions for the trial plants. The damage to the test plants is scored visually after a test period of 3 weeks by comparison with untreated controls (herbicidal activity in percent (%): 100% activity=the plants have died, 0% activity=like control plants). […] The tables below illustrate, in an illustrative manner, the post-emergence herbicidal action of the compounds of the invention, the herbicidal activity being stated in percent.

Echinochloa crus-galli [4] = assay: Pre-emergence herbicidal action against ECHCG; conditions: visual score after 3 weeks vs untreated controls
How it was run: as §1

Matricaria inodora [5] = assay: Pre-emergence herbicidal action against MATIN; conditions: visual score after 3 weeks vs untreated controls
How it was run: as §1

Pharbitis purpurea [6] = assay: Pre-emergence herbicidal action against PHBPU; conditions: 320 g/ha; visual score after 3 weeks vs untreated controls
From the text: as §2

Polygonum convolvulus = assay: Pre-emergence herbicidal action against POLCO; conditions: 320 g/ha
How it was run: as §1

Setaria viridis = assay: Pre-emergence herbicidal action against SETVI
How it was run: as §1

Stellaria media [7] = assay: Pre-emergence herbicidal action against STEME
From the text: as §2

Veronica persica = assay: Pre-emergence herbicidal action against VERPE; conditions: 320 g/ha
How it was run: as §1

Viola tricolor [8] = assay: Pre-emergence herbicidal action against VIOTR
How it was run: as §1

Abutilon theophrasti [9] = assay: Post-emergence herbicidal action against ABUTH
How it was run: (§3)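 Herbicidal effect was scored visually in percent after about 3 weeks in the greenhouse. Plants had been raised in sandy loam and treated post-emergence at the one-leaf stage with formulated compound at 600 to 800 l/ha water plus 0.2% wetting agent.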

Amaranthus retroflexus [10] = assay: Post-emergence herbicidal action against AMARE; conditions: visual assessment about 3 weeks after treatment
How it was run: as §3

Avena fatua [11] = assay: Post-emergence herbicidal action against AVEFA; conditions: 80 g/ha, visual assessment about 3 weeks after treatment
How it was run: as §3

Echinochloa crus-galli [12] = assay: Post-emergence herbicidal action against ECHCG; conditions: visual assessment about 3 weeks after treatment
How it was run: as §3

Matricaria inodora [13] = assay: Post-emergence herbicidal action against MATIN; conditions: visual assessment about 3 weeks after treatment
How it was run: as §3

Pharbitis purpurea [14] = assay: Post-emergence herbicidal action against PHBPU; conditions: visual assessment about 3 weeks after treatment
How it was run: as §3

Stellaria media [15] = assay: Post-emergence herbicidal action against STEME; conditions: visual assessment about 3 weeks after treatment
Description: Seeds of monocotyledonous and dicotyledonous weed and crop plants are laid out in sandy loam soil in wood-fiber pots, covered with soil and cultivated in a greenhouse under good growth conditions. 2 to 3 weeks after sowing, the test plants are treated at the one-leaf stage. The compounds of the invention, formulated in the form of wettable powders (WP) or as emulsion concentrates (EC), are then sprayed onto the green parts of the plants in the form of an aqueous suspension or emulsion at a water application rate equivalent to 600 to 800 l/ha, with addition of 0.2% wetting agent. After the test plants have been left to stand in the greenhouse under optimal growth conditions for about 3 weeks, the action of the preparations is assessed visually in comparison to untreated controls (herbicidal action in percent (%): 100% activity=the plants have died, 0% activity=like control plants). […] The tables below illustrate, in an illustrative manner, the post-emergence herbicidal action of the compounds of the invention, the herbicidal activity being stated in percent.

Viola tricolor [16] = assay: Post-emergence herbicidal action against VIOTR; conditions: 80 g/ha
How it was run: as §3

CCCn1nnnc1NC(=O)c1ccc(C(F)(F)F)c(C(=O)n2cccn2)c1Cl [Example 3-153]
80%: Pre-emergence action against CYPES (Cyperus esculentus; 80 g/ha) | Pre-emergence action against CYPES (Cyperus esculentus; 320 g/ha) | Pre-emergence action against MATIN (Matricaria inodora [5]; 20 g/ha) | Post-emergence action against AVEFA in % (Avena fatua [11]) | Post-emergence action against ECHCG in % (Echinochloa crus-galli [12]; 20 g/ha) | Post-emergence action against MATIN in % (Matricaria inodora [13]; 5 g/ha) | Post-emergence action against PHBPU in % (Pharbitis purpurea [14]; 5 g/ha) | Post-emergence action against PHBPU in % (Pharbitis purpurea [14]; 20 g/ha)
90%: Pre-emergence action against AVEFA (Avena fatua [3]) | Pre-emergence action against ECHCG (Echinochloa crus-galli [4]; 80 g/ha) | Pre-emergence action against POLCO (Polygonum convolvulus) | Pre-emergence action against SETVI (Setaria viridis; 20 g/ha) | Pre-emergence action against STEME (Stellaria media [7]; 20 g/ha) | Pre-emergence action against VERPE (Veronica persica) | Pre-emergence action against VIOTR (Viola tricolor [8]; 20 g/ha) | Post-emergence action against ABUTH (Abutilon theophrasti [9]; 5 g/ha) | Post-emergence action against ABUTH (Abutilon theophrasti [9]; 20 g/ha) | Post-emergence action against ABUTH (Abutilon theophrasti [9]; 80 g/ha) | Post-emergence action against AMARE in % (Amaranthus retroflexus [10]; 5 g/ha) | Post-emergence action against AMARE in % (Amaranthus retroflexus [10]; 20 g/ha) | Post-emergence action against MATIN in % (Matricaria inodora [13]; 20 g/ha) | Post-emergence action against PHBPU in % (Pharbitis purpurea [14]; 80 g/ha) | Post-emergence action against VIOTR in % (Viola tricolor [16])
100%: Pre-emergence action against ABUTH (Abutilon theophrasti [1]; 20 g/ha) | Pre-emergence action against ABUTH (Abutilon theophrasti [1]; 80 g/ha) | Pre-emergence action against ABUTH (Abutilon theophrasti [1]; Dosage column 320 g/ha (heading prints 3200 g/ha)) | Pre-emergence action against AMARE (Amaranthus retroflexus [2]; 20 g/ha) | Pre-emergence action against AMARE (Amaranthus retroflexus [2]; 80 g/ha) | Pre-emergence action against AMARE (Amaranthus retroflexus [2]; 320 g/ha) | Pre-emergence action against ECHCG (Echinochloa crus-galli [4]; 320 g/ha) | Pre-emergence action against MATIN (Matricaria inodora [5]; 80 g/ha) | Pre-emergence action against MATIN (Matricaria inodora [5]; 320 g/ha) | Pre-emergence action against PHBPU (Pharbitis purpurea [6]) | Pre-emergence action against SETVI (Setaria viridis; 80 g/ha) | Pre-emergence action against SETVI (Setaria viridis; 320 g/ha) | Pre-emergence action against STEME (Stellaria media [7]; 80 g/ha) | Pre-emergence action against STEME (Stellaria media [7]; 320 g/ha) | Pre-emergence action against VIOTR (Viola tricolor [8]; 80 g/ha) | Pre-emergence action against VIOTR (Viola tricolor [8]; 320 g/ha) | Post-emergence action against AMARE in % (Amaranthus retroflexus [10]; 80 g/ha) | Post-emergence action against ECHCG in % (Echinochloa crus-galli [12]; 80 g/ha) | Post-emergence action against MATIN in % (Matricaria inodora [13]; 80 g/ha) | Post-emergence action against STEME in % (Stellaria media [15]; 5 g/ha) | Post-emergence action against STEME in % (Stellaria media [15]; 20 g/ha) | Post-emergence action against STEME in % (Stellaria media [15]; 80 g/ha)
